These results are taken from article PMC10376326, “Novel Acylselenourea Derivatives: Dual Molecules with Anticancer and Radical Scavenging Activity” (Antioxidants, 2023).

Usually IC50 stands for the concentration that gives 50% inhibition.

Each structure is given as a SMILES string. Entries after “also recorded” stand apart in the source; their conditions may differ. Like-named read-outs stand apart in the source and are kept apart here. Some results are limits rather than exact numbers.

The test system of experiment [1] is DU-145 cells. Description: Protective effects against H2O2-induced oxidative stress in DU-145 cells (MTT). It counts as cell-based, human. The conditions noted are these: for fold increase of cell survival: 0.0015 mg/mL, DU-145 treated with 300, 250 and 200 µM H2O2; for Increase-fold: increase-fold of cell survival. The protocol: Cells were treated with the selected compounds and then oxidative damage to DU-145 cells was induced using different concentrations of H2O2 (200, 250 and 300 µM), and cell viability was assessed by the MTT method. Briefly, 2.5 × 10^4 DU-145 cells per well were added in 96-well plates. After 24 h of incubation, DMSO, 1.I, 2.I, 5.I, 7.II, 10.II, and ascorbic acid were added to each well at two different concentrations (0.0015 mg/mL and 0.0003 mg/mL) and incubated for 1 h. After that, H2O2 was added at the concentrations of 200, 250, and 300 µM, and the cells were incubated for 12 h to induce cell damage. MTT assay was used to measure cell viability. For each treatment, the mean cell viability was calculated from three independent experiments. The DMSO-treated controls were assigned with a cell viability value of 100% (Vcontrol). The results are expressed as a cell growth inhibition % caused by H2O2 and the increased fold of cell survival, as follows: • Cells without compounds, only treated with H2O2: (2) % Cell growth inhibition=Acontrol - Asample/Acontrol × 100
• Cells treated with compounds and H2O2:
(3) % Cell growth inhibition=Asample (compound) - Asample (compound+H2O2)/Acontrol × 100
(4) Increase-fold of cell survival=% cell growth inhibition (H2O2)/% cell growth inhibition (compound+ H2O2)
The standard error of the mean (SEM) was calculated in at least three independent experiments performed in quadruplicates.

In experiment [2] the test system is HTB-54 (lung) cancer cell line. In words: MTT cell viability assay, HTB-54. It counts as cell-based, human. The conditions noted are these: for activity at 10 µM: read-out: Cell growth %, HTB-54, 10 µM, 48 h, MTT; for activity at 50 µM: read-out: Cell growth %, HTB-54, 50 µM, 48 h, MTT; for SI: IC50 (BEAS-2B)/IC50 (HTB-54). In general terms: Tetrazolium dyes change colour on reduction, which living cells bring about.

For experiment [3], the system named is DU-145 cells. In words: Annexin V & Dead Cell apoptosis assay. It counts as cell-based, human. The conditions noted are these: DU-145, 10 µM, 24 h. The protocol: Induction of apoptosis was assayed using Annexin V & Dead Cell assay kit and Caspase 3/7 assay kit (EMD Millipore, Darmstadt, Germany). DU-145 cells were seeded in 6-well plates at a density of 6 × 10^5 cells/well and treated either with DMSO (control) or 10 µM of compounds 1.I and 5.I and incubated for 24 h. At the end of treatment, cells were harvested and processed with appropriate staining according to the manufacturer’s protocol. For the Caspase 3/7 assay, cells were stained with 5 μL of Muse™ Caspase 3/7 working solution and incubated at 37 °C for 30 min. After incubation, […] of Muse™ Caspase 7-AAD working solution was added and the samples were incubated for another 5 min at room temperature in the dark. For Annexin V assay, cells were stained with 100 μL pf Muse™ Annexin V & Dead Cell Reagent and incubated for 20 min at room temperature in the dark prior to analysis. Samples were further analyzed on a Muse™ Cell Analyzer (Merck Millipore, Darmstadt, Germany) using Muse™ 1.4 software. Data were obtained from at least two independent experiments.

Experiment [4] has as its system DU-145 (prostate) cancer cell line. Description: MTT cell viability assay, DU-145. The conditions noted are these: Homo sapiens, DU-145, 48 h; for activity at 10 µM: read-out: Cell growth %, DU-145, 10 µM, 48 h, MTT; for activity at 50 µM: read-out: Cell growth %, DU-145, 50 µM, 48 h, MTT; for IC50: read-out: IC50 DU-145. It counts as cell-based, human. The gist of the method: (§1)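 MDA-MB-231, HTB-54 and DU-145 grown in RPMI 1640, HT-29 in McCoy's 5A (10% FBS). Output is % cell growth; IC50 determined; ≥3 experiments in quadruplicate.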

Experiment [5] relates to HT-29 (colon) cancer cell line. In words: MTT cell viability assay, HT-29. It counts as cell-based. The settings on record: Homo sapiens, HT-29, 48 h, read-out: Cell growth %; for activity at 10 µM: HT-29, 10 µM; for activity at 50 µM: HT-29, 50 µM. Put shortly:
as §1

The mark [6] stands for this setting: compound 0.0003 mg/mL, 200 µM H2O2, DU-145.
[7] abbreviates: compound 0.0003 mg/mL, 250 µM H2O2, DU-145.
[8] abbreviates: compound 0.0003 mg/mL, 300 µM H2O2, DU-145.
The mark [9] stands for this setting: compound 0.0015 mg/mL, 200 µM H2O2, DU-145.
[10] abbreviates: compound 0.0015 mg/mL, 250 µM H2O2, DU-145.
[11] abbreviates: compound 0.0015 mg/mL, 300 µM H2O2, DU-145.
[12] abbreviates: Homo sapiens, HTB-54, 48 h, read-out: IC50 HTB-54, Lung, MTT, 48 h.

For the compound `CCCNC(=[Se])NC(=O)c1ccccc1` [Compound 5.I, N-(propylcarbamoselenoyl)benzamide], the “fold increase of cell survival” value in experiment [1] is “doubled cell viability; also recorded: greater two-fold increase of cell survival”. Moreover, the Increase-fold was determined as 1.9 ± 0.3 in experiment [1] (setting [6]); 1.9 ± 0.4 in experiment [1] (setting [7]); 1.7 ± 0.4 in experiment [1] (setting [8]); 3.1 ± 0.5 in experiment [1] (setting [9]); 2.7 ± 0.3 in experiment [1] (setting [10]); 2.4 ± 0.4 in experiment [1] (setting [11]). Besides, the activity at 10 µM in experiment [2] (Homo sapiens, HTB-54, 48 h) is 36.8 ± 8.6%; in experiment [4] it was 42.4 ± 4.9%; in experiment [5] it was 39.6 ± 14.3%. The activity at 50 µM in experiment [2] (Homo sapiens, HTB-54, 48 h) worked out at 27.5 ± 6.5%; in experiment [4], 47.9 ± 3.9%; in experiment [5], 21.4 ± 1.5%. Also, the IC50 in experiment [2] (setting [12]) is less than 10 µM; in experiment [2] (read-out: IC50 HTB-54, Lung, MTT, 48 h), 8.4 ± 3.9 µM; in experiment [4], 11.5 ± 3.4 µM. Also, the SI in experiment [2] was more than 11.9. Also, the “increase of late/dead apoptotic cells with respect to the control” value in experiment [3] was “about 25%”. For the same compound, the “viable population reduced by” value in experiment [3] was 37%.
Consider `CCCNC(=[Se])NC(=O)c1ccco1` [Compound 1.I, N-(propylcarbamoselenoyl)furan-2-carboxamide], for which the “fold increase of cell survival” value in experiment [1] is listed as “doubled cell viability; also recorded: greater two-fold increase of cell survival”. For the same compound, the Increase-fold in experiment [1] (setting [6]) came out at 2.0 ± 0.0; in experiment [1] (setting [7]), 2.0 ± 0.7; in experiment [1] (setting [8]) it was 1.8 ± 0.4; in experiment [1] (setting [9]) it was 2.3 ± 0.7; in experiment [1] (setting [10]) it was 2.7 ± 0.4; in experiment [1] (setting [11]), 2.3 ± 0.3. For the same compound, the activity at 10 µM came to 47.1 ± 14.8% in experiment [2] (Homo sapiens, HTB-54, 48 h); 44.9 ± 4.8% in experiment [4]; 44.2 ± 7.1% in experiment [5]. The activity at 50 µM in experiment [2] (Homo sapiens, HTB-54, 48 h) was determined as 31.6 ± 8.2%; in experiment [4] it was 48.7 ± 3.1%; in experiment [5] it was 25.5 ± 4.2%. For the same compound, the IC50 was less than 10 µM in experiment [2] (setting [12]) and 9.5 ± 2.5 µM in experiment [4]. This compound showed an SI in experiment [2] of more than 12.7. Further, in experiment [3], the “increase of late/dead apoptotic cells with respect to the control” value was “about 25%”. Also, in experiment [3], the “viable population reduced by” value is on record as 37%.
